Literature values in patent US9149490B2, “Acne treatment composition and methods for using” (Skinvisible Pharmaceuticals, Inc., priority 2006, dated 2015).

Conditions: in vivo

Substance | dermal toxicity
Poly(vinylpyrrolidone/1-eicosene) [PVPE] | no demonstrable dermal toxicity
Poly(vinylpyrrolidone/1-hexadecene) [PVPH] | no demonstrable dermal toxicity
